Entries after “also recorded” stand apart in the source; their conditions may differ. Read-outs that look alike come from different tables or passages of the source.

In experiment [1] the test system is adult volunteers. Particulars: human, in vivo.
The subject of experiment [2] is male rats of the Wistar-100 line. Particulars: rat, in vivo.
For experiment [3] the test system is unchanged. The conditions noted are these: rat, in vivo. The source holds these as a separate data set.
The test system is the same in experiment [4]. Particulars: rat, in vivo. The source holds these as a separate data set.

On to `O=S(=O)([O-])CC(S)CS.[Na+]` (stereo not shown) [Unithiol, 2,3-Dimercaptopropane-sulfonate Na], for which, in experiment [1], the “biochemical values (MDA, vitamins E and A, SH-groups, ALT, AST, triglycerides)” value is “did not lead to worsening of the biochemical values; also recorded: restoration of the initial (basic) level of the biochemical values”; the “time after intake at which the subjective perception of withdrawal is removed” value lay in the range of 8 to 10 min. In addition, the “biochemical parameters of toxic action of ethanol on liver tissue (lipid peroxides, triglycerides, ALT, AST)” value in experiment [2] is on record as “oral administration of Unithiol yields essentially better values”. Also, the “concentration of end products of lipid peroxidation (TBA-positive compounds) in blood plasma” value in experiment [3] was “reliably differing from an analogous group without use of Unithiol toward; lowering”. For the same compound, the “content of the main endogenous antioxidants (vitamins E, A, SH-groups)” value in experiment [3] (po) is on record as “preserved on the level close to the values in the control group”. Besides, in experiment [4], the “Alanine aminotransferase (ALT) activity in liver homogenates” value is given as “twice lower”; the “activity of enzymes characterizing damage of hepatocyte membranes (ALT, AST)” value was “reliably lower than in the control group”; the “concentration of end products of lipid peroxidation (TBA-positive compounds) in blood plasma” value is “reliably differing from an analogous group without use of Unithiol toward; lowering”; the “mean content of vitamin E and A in blood plasma” value was “on the level of values in the control group”. The “content of the main endogenous antioxidants (vitamins E, A, SH-groups)” value in experiment [4] (po) is on record as “preserved on the level close to the values in the control group”.

These data come from patent US20060148898A1 (priority 2003, published 2006).
